# Measured values as given in patent US12264185B2, “Stabilized BCL9 peptides for treatment of aberrant Wnt signaling” (WntRx Pharmaceuticals Inc., priority 2015, dated 2025).
# Like-named read-outs stand apart in the source and are kept apart here.
# Assays:
# JAK/STAT = JAK/STAT transcription assay (SIE-bla ME-180 cell line); type: cell-based
# Excerpt: (§1) In these assays, the trifluoroacetic salt form of WX-024 was used.
# TNF-alpha/JNK = TNF-alpha/JNK transcription assay (AP1-bla ME-180 cell line); type: cell-based
# Excerpt: as §1
# [1] = system: patient derived colon cancer cells; assay: Patient derived xenograft (PDX) colon cancer model in NOD/SCID mice; type: in vivo; details: 15 mg/kg i.v. daily
# Excerpt: To assess whether WX-024 is also applicable to tumor derived from human patients, a xenograft animal model inoculated with patient derived colon cancer cells was exposed to WX-024. Samples derived from four different colon cancer patients were screened for biomarkers that indicate an elevated level of canonical Wnt/β-catenin signaling. […] The samples were also stained for nuclear co-localization of BCL9 and β-catenin. […] Male NOD/SCID mice at about 5 weeks of age were […] with colon cancer cells derived from patient #8. Briefly, the selected CRC tumor samples from FIG. 28A were sliced into 3 mm^3 fragments and subcutaneously implanted onto the right flank of NOD/SCID mice. […] Each moue was given a daily intravenous administration for more than 31 days. […] At the end of the study, the mice were sacrificed and tumor samples were collected.
# [2] = Toxicokinetics, 14 days i.p., female balb/c mice; details: for half-life: female, balb/c, mouse, plasma, ip
# HCT116 cells = type: cell-based
# Experimental: The additional polypeptides were tested in a CellTiterGlo luminescent cell viability assay (Promega). ICG001 was used as a positive control in this assay.
# [3] = Preliminary solubility study; type: physicochemical; details: water, DMSO, and PBS
# Colo320DM tumor cells = assay: Colo320DM colon cancer xenograft model in BALB/c nude mice; type: in vivo; details: for tumor volume (mean±standard error of mean) / tumor volume smaller than vehicle-treated group: Day 14
# Experimental: Based on the favorable PK profile of WX-024 in mice, as described above, the efficacy of WX-024 was investigated in a mouse xenograft colon cancer model. The Colo320DM colon cancer model in BALB/c nude mice was employed, in which Colo320DM cells are injected subcutaneously into BALB/c nude mice.
# Colo320DM tumor cells (ATCC) were cultured in RPMI1640 medium (GIBCO, Cat #31800022) supplemented with 10% heat-inactivated fetal bovine serum at 37° C. Harvesting of Colo320DM cells was done when cells were growing in an exponential growth phase. Female BALB/c nude mice (Shanghai Laboratory Animal Center) were used for the study at 6-8 weeks of age. Animals had free access to water and irradiation sterilized food throughout the study period. Each mouse (n=16) was inoculated subcutaneously in the right flank region with 5×10^6 Colo320DM tumor cells in 0.1 mL of PBS. Tumors were allowed to develop for 14 days after inoculation, at which time the mean tumor size was 156.78 mm^3. During the study, the care and use of animals was conducted in accordance with the Association for Assessment and Accreditation of Laboratory Animal Care (AAALAC). Following inoculation of tumor cells, animals were checked daily for morbidity and mortality. The body weight of each animal was monitored throughout the study.
# 4% ethanol+8% Tween 80+88% 10 mM PBS was used as a vehicle. All treatments were administered once daily. The WX-024 solution was dissolved in pure DMSO and then diluted with sterile water. The dosing volume was adjusted for body weight such that the dosing volume for each animal was 0.05 mL/10 g of body weight for i.v. dosing. The treatment period was 14 days.
# All treatments were begun as daily i.v. dosing. […] The injection method was changed to i.p. injection at Day 7 for the 10 mg/kg and 15 mg/kg groups. Dosing via i.p. injection (with the dosing volume adjusted to 0.1 ml/10 g) was maintained for the 10 and 15 mg/kg groups from Day 7 of the treatment period onwards, and the body weight of these animals stabilized.
# Tumor volumes were measured in two dimensions using a caliper at Days 0, 3, 5, 7, 9, 11, 14 of the treatment period (all dosing starting after 14 days of tumor development). The volume of the tumor was measured using the equation: V=0.5 a×b^2, wherein a and b are the long and short diameters of the tumor, respectively. Tumor volumes are expressed in mm^3. At the end of the study (i.e., following 22 days of treatment) the tumor mass weight was measured.
# At the conclusion of the Colo320DM model, tumor and intestinal samples were collected, fixed in formalin, and imbedded in paraffin using standard techniques. Four μm-thick section of tissue were prepared for immunohistochemistry (IHC) staining. The tissue sections were deparaffinized and rehydrated via sequential washing with xylene, graded ethanol and phosphate-buffered saline (PBS). Following deparaffinization and rehydration, the tissue sections were subjected to high temperature-induced epitope retrieval in target retrieval solution (10 mM citrate buffer; pH 6.0).
# Antibody binding was detected using an UltraVision Quanto Detection System (Thermo, Cat #TL-060-QHD) kit following the manufacturer's instructions. The sections were treated with Hydrogen Peroxide Block and Ultra V Block (provided in the kit) and then incubated with primary antibody overnight at 4° C.: CD44 (Abcam, Cat #ab157107 diluted 1:500), Axin (LSBio, Rabbit IgG, Cat #LS-B7029, Lot #51907, Stock Conc.: 1000 ug/ml), or VEGFA (VEGFA: LS Bio, Rabbit IgG, Cat #LS-B10263, Lot #65323, Stock Conc.: 1000 ug/ml). Rabbit IgG replaced the primary antibody in the negative control. All sections were counterstained with hematoxylin, dehydrated and mounted. IHC images were taken with an Olympus CKX31SF reverse microscope.
# [4] = IP-10 mg/kg, after the first dosing (day 1)
# [5] = IP-15 mg/kg, after the first dosing (day 1)
# [6] = IP-20 mg/kg, after the first dosing (day 1)
smiles,measurement,setting,value
"CC[C@H](C)[C@@H]1NC(=O)[C@@](C)(NC(=O)[C@H](CCCNC(=N)N)NC(=O)[C@H](CC(C)C)NC(=O)[C@@H](NC(=O)[C@H](CCC(N)=O)NC(=O)[C@H](CC(C)C)NC(C)=O)[C@@H](C)O)CCCC=CCCC[C@@](C)(C(=O)N[C@@H](CC(C)C)C(=O)N[C@@H](Cc2ccc3ccccc3c2)C(N)=O)NC(=O)[C@H](CCCNC(=N)N)NC(=O)[C@H](CCC(N)=O)NC1=O [WX-024, LQTLRXaa1IQRXaa2L]",IC50,"JAK/STAT; Example 4.5, read-out: IC50, JAK/STAT transcription assay",> 10 µM
same,IC50,"JAK/STAT; summary, Example 6, read-out: IC50, JAK/STAT reporter assay",> 0.1 µM
same,IC50,"TNF-alpha/JNK; AP1-bla ME-180, TNF-alpha stimulation, trifluoroacetic salt form, read-out: IC50 (nM), TNP-alpha/JNK pathway",> 1000 nM
same,IC50,"TNF-alpha/JNK; Example 4.5, read-out: IC50, TNF-alpha/JNK transcription assay",> 10000 nM
same,IC50,"TNF-alpha/JNK; summary, Example 6, read-out: IC50, TNF-α/JNK reporter assay",> 100 nM
same,CD44 expression in tumor samples,[1],capable of reducing CD44 expression
same,average tumor growth inhibition rate,[1]; after 31 days of dosing,75.6%
same,AUCINF,[2]; [4],117 µg·h/mL
same,AUClast,[2]; [4],114333 ng·h/mL
same,Cmax,[2]; [4],11390 ng/mL
same,Terminal t1/2,[2]; [4],4.52 h
same,Tmax,[2]; [4],1.50 h
same,Cmax,"[2]; IP-10 mg/kg, after the last dosing (day 14)",11360 ng/mL
same,AUCINF,[2]; [5],129.1 µg·h/mL
same,AUClast,[2]; [5],"118,033 hr*ng/mL"
same,Cmax,[2]; [5],9767 ng/mL
same,Terminal t1/2,[2]; [5],7.59 h
same,AUCINF,[2]; [6],175.333 µg·h/mL
same,AUClast,[2]; [6],"162,333 hr*ng/mL"
same,Cmax,[2]; [6],12733 ng/mL
same,Terminal t1/2,[2]; [6],6.47 h
same,Tmax,[2]; [6],2.67 h
same,half-life,[2]; 10 mg/kg,6.97 h
same,half-life,[2]; 15 mg/kg,4.25 h
same,half-life,[2]; 20 mg/kg,4.55 h
same,IC50,HCT116 cells,1.92 µM
same,inhibition of cell growth,"HCT116 cells; HCT116 cells, CellTiterGlo",particularly effective
same,solubility,[3],≥ 1000 µg/mL
same,effect on body weight,Colo320DM tumor cells; 5 mg/kg i.v. throughout the study,without an apparent effect on body weight
same,tumor volume (mean±standard error of mean),Colo320DM tumor cells; 5 mg/kg,2039±373.29 mm^3
same,tumor volume (mean±standard error of mean),Colo320DM tumor cells; 10 mg/kg (i.v. then i.p. from Day 7),1370±114.39 mm^3
same,intestinal morphology,"Colo320DM tumor cells; 10 mg/kg or 15 mg/kg, 22 days",maintained
same,tumor volume smaller than vehicle-treated group,Colo320DM tumor cells; 10 mg/kg,44.9%
same,tumor volume (mean±standard error of mean),Colo320DM tumor cells; 15 mg/kg (i.v. then i.p. from Day 7),1157.6±99.04 mm^3
same,average body weight loss compared to vehicle,"Colo320DM tumor cells; 15 mg/kg i.v. daily, after 3 days of treatment",approximately 11%
same,Axin 2 staining of intestine,"Colo320DM tumor cells; 15 mg/kg, 22 days",decreased Axin 2 staining
same,CD44 staining of tumor,"Colo320DM tumor cells; 15 mg/kg, 22 days",decrease in CD44 staining
same,tumor volume smaller than vehicle-treated group,Colo320DM tumor cells; 15 mg/kg,53.2%
same,tumor mass weight,"Colo320DM tumor cells; 10 or 15 mg/kg, 22 days of treatment",substantially less than tumor mass of vehicle-treated mice
same,"IC50, preliminary dose-response correlation with predicted tumor size",Colo320DM tumor cells; Colo320DM xenograft,12.69 mg/kg
same,VEGFA expression in tumors,Colo320DM tumor cells; immunohistochemistry,capable of suppressing VEGFA expression in tumors
